The values below are quoted from earlier work in publication PMC6588697, “Lugdunin amplifies innate immune responses in the skin in synergy with host- and microbiota-derived factors” (Nature Communications, 2019).

The data set deals with primary human neutrophils, erythrocytes, HL60. Particulars: cited from earlier work. The text has this:
Lugdunin represents the founding member of the new class of cyclic thiazolidine-containing peptide antibiotics. […] In our previous work, we have shown that lugdunin treatment led to a strong reduction and even complete eradication of viable S. aure ...

With Lugdunin, the “lysis of primary human neutrophils, erythrocytes or HL60 (in words)” value is “did neither cause lysis”.
